The IC50 is the midpoint of a concentration-inhibition curve.

This note sets out measurements from US20240294478A1, “ANTI-CANCER COMPOUNDS AND METHODS OF USE” (YALE UNIVERSITY, priority 2021, published 2024).

Structures are written as SMILES. Like-named read-outs stand apart in the source and are kept apart here.

One assay has as its system LN229 MGMT+/MMR− cells. Description: Short-term cell viability assay, LN229 MGMT+/MMR- (shRNA targeting MSH2). Format: cell-based. The note with it: Homo sapiens. Here is the method:
(§1) LN229 MGMT- and MGMT+ cell lines were a gift from B. Kaina (Johannes Gutenberg University Mainz, Mainz, Germany) and grown in Gibco® Duilbecco's Modified Eagle Medium with 10% fetal bovine serum (DMEM). For each compound tested, the relationship between MGMT status and MMR status and compound activity, in terms of IC50 values ([…]), was determined by the following method. On day 1, LN229 isogenic cells of varying MGMT and MMR status were seeded in 96 well format at a density of 2000 cells/well in 100 μL of DMEM media and allowed to adhere overnight. On day 2, a drug master plate was made with 100×the desired maximal concentration of test compound and serially diluted by 2 until 100×the minimal desired concentration, with one DMSO control. Then daughter plates were created with varied concentrations from 3-times the minimal concentration to 3-times the maximal desired concentration. Afterwards, 50 μL of daughter drug plate was added to 100 μL of the seeded cells for a final concentration of 1×in triplicate. Cells were allowed to grow for 6 days. On day 7, the cells were fixed, and stained with Hoechst nuclear dye and imaged to determine growth inhibition.
For each compound tested, the relationship between MGMT status and MMR status and compound activity, in terms of IC50 values (in μM), was determined. In addition, for each compound, the therapeutic index (TI) was calculated, according to the equation MGMT TI=IC50 (MGMT+/MMR+) divided by IC50 (MGMT−/MMR+). The T1 indicates the efficacy of a compound in treating the targeted MGMT-cancer cells as compared to potential for the same compound to damage, or have adverse effects against, normal cells which are MGMT+cells, The higher the value of the TI, the safer the compound is. […] MMR RI (resistance index)=IC50 (MGMT−/MMR−) divided by IC50 (MGMT−/MMR+). The higher the value of the RI, the less likely that resistance to the compound will develop.
Short-term Cell Viability Assay. Cells were seeded in 96-well plates at 1000 or 2000 cells/well and allowed to adhere at 23° C. for 60 min and then incubated overnight at 37° C. Cells were treated with indicated concentrations of compounds in triplicate for 4-6 days prior to fixation with 3.7% paraformaldehyde and nuclear staining with 1 μg/mL Hoechst 33342 dye. Cells were imaged on a Cytation 3 imaging reader (BioTek) and quantified using CellProfiler software. For in vitro short-term growth delay experiments, IC50 values were determined from the nonlinear regression equation, [inhibitor] vs normalized response with variable slope.

The next assay deals with LN229 MGMT−/MMR− cells. Description: Short-term cell viability assay, LN229 MGMT-/MMR- (shRNA targeting MSH2). Format: cell-based, human. The note with it: for IC50: Homo sapiens, read-out: IC50 against LN229 cell lines, MGMT− MMR−; for activity in MGMT−/MMR− cells, in words: LN229 MGMT−/MMR−. Here is the method: as §1
For each compound tested, the relationship between MGMT status and MMR status and compound activity, in terms of IC50 values (in μM), was determined. In addition, for each compound, the therapeutic index (TI) was calculated, according to the equation MGMT TI=IC50 (MGMT+/MMR+) divided by IC50 (MGMT−/MMR+). […] MMR RI (resistance index)=IC50 (MGMT−/MMR−) divided by IC50 (MGMT−/MMR+).
Short-term Cell Viability Assay. Cells were seeded in 96-well plates at 1000 or 2000 cells/well and allowed to adhere at 23° C. for 60 min and then incubated overnight at 37° C. […] Cells were imaged on a Cytation 3 imaging reader (BioTek) and quantified using CellProfiler software. For in vitro short-term growth delay experiments, IC50 values were determined from the nonlinear regression equation, [inhibitor] vs normalized response with variable slope.

A further assay deals with LN229 MGMT+ shMSH6 cells. Put plainly: Short-term viability assay, LN229 MGMT+ shMSH6. The note with it: Homo sapiens, LN-229, Table III, read-out: IC50 against LN229 cell lines, MGMT MMR−. Format: cell-based. The protocol:
The activity of KL-50 in MGMT-LN229 cells engineered to lack expression of other key MMR proteins including MSH6, MLH1, PMS2, and MSH3 was also confirmed. Western blotting was performed in LN229 MGMT+/−cells with stable expression of shRNA targeting MSH6, MLH1, PMS2, or MSH3 to confirm depletion of the shRNA targets. In shMSH6 cells, there was reduced expression of MSH2, and in shMLH1 cells, there was loss of PMS2, due to destabilization in the setting of loss of their heterodimeric partners. GAPDH serves as loading control. […] Short-term viability assay curves for KL-50 in LN229 MGMT+/−, MMR+/shMSH6 cells. […] Short-term viability assay curves for KL-50 in LN229 MGMT+/−, MMR+/shMLH1 cells. […] Short-term viability assay curves for KL-50 in LN229 MGMT+/−, MMR+/shPMS2 cells. […] Short-term viability assay curves for KL-50 in LN229 MGMT+/−, MMR+/shMSH3 cells.
MMR Protein shRNA Knockdown. pGIPZ lentiviral shRNA vectors targeting MSH2, MSH6, MLH1, PMS2, and MSH3 were purchased from Horizon Discovery (Table IV). […]
Short-term Cell Viability Assay. […] Cells were imaged on a Cytation 3 imaging reader (BioTek) and quantified using CellProfiler software. For in vitro short-term growth delay experiments, IC50 values were determined from the nonlinear regression equation, [inhibitor] vs normalized response with variable slope.

Assay [1] has as its system LN229 MGMT+/−, MMR+/− cells. Put plainly: Cell cycle analysis. The note with it: 20 μM. Format: cell-based, human. Here is the method:
FIGS. 6A-6E: Selected cell cycle analysis upon drug treatment. FIG. 6A: Percentage of cells in G1, S, and G2 cell cycle phases after treatment, as in FIGS. 5A-5C, measured using integrated nuclear (Hoechst) staining intensity. Columns, mean; error bars, SD; n=3 independent analyses.
Cell Cycle Analysis. Cell cycle analysis was performed using integrated Hoechst nucleic acid dye fluorescence intensity. Briefly, integrated Hoechst fluorescence intensity was log 2 transformed and histograms from DMSO-treated cells were used to identify the centers of the 2N and 4N DNA peaks. These values were used to normalize the 2N DNA peak to 1 and the 4N DNA peak to 2. Cells were then classified by normalized log 2 DNA content as G1 (0.75-1.25), S (1.25-1.75), or G2 (1.75-2.5) phase cells. The percentage of cells within each phase of the cell cycle was determined for each treatment condition. The three sets of Hoechst-stained cells corresponding to the three separate DNA foci stains were treated as three independent analyses.

[2] abbreviates: LN-229, Table II, read-out: IC50 against LN229 cell lines, MGMT MMR−.

Turning to `NC(=O)c1ncn2c(=O)n(CCF)nnc12` [KL-50], the IC50 in the assay on LN229 MGMT+/MMR− cells (setting [2]) was 504 ± 55 µM; with LN229 MGMT−/MMR− cells (LN-229, Table II), 22 ± 6.9 µM; with LN229 MGMT+ shMSH6 cells, 362 ± 41 µM. Further, the “activity in MGMT−/MMR− cells, in words” value with LN229 MGMT−/MMR− cells is “exquisite sensitivity”. The “MGMT− RI (resistance index)” value in the assay on LN229 MGMT−/MMR− cells (Table II, IC50 (MGMT−/MMR−) divided by IC50 (MGMT−/MMR+)) worked out at 0.9. Moreover, the “G2 arrest in MGMT+/MMR+ cells” value in assay [1] is listed as “moderate G2 arrest”. Further, in assay [1], the “G2 arrest in MGMT−/MMR− cells” value is “attenuated G2 arrest”. Also, the “G2 arrest in MGMT−/MMR+ cells” value in assay [1] (24 to 48 h) was “increasing G2 arrest”.

`Cn1nnc2c(C(N)=O)ncn2c1=O` [TMZ, 4-methyl-5-oxo-2,3,4,6,8-pentazabicyclo[4.3.0]nona-2,7,9-triene-9-carboxamide, reference compound]: the IC50 is above 100 µM in the assay with LN229 MGMT+/MMR− cells (LN-229, 144 h, Table 1, 6 days growth, read-out: IC50 against LN229 cell lines, MGMT+ MMR−); 1000 ± 107 µM in the assay with LN229 MGMT+/MMR− cells (setting [2]); 838 ± 100 µM with LN229 MGMT−/MMR− cells (LN-229, 144 h, Table 1, 6 days growth); 838 ± 100 µM in the assay with LN229 MGMT−/MMR− cells (LN-229, Table II); 929 ± 201 µM with LN229 MGMT+ shMSH6 cells. Also, in the assay on LN229 MGMT−/MMR− cells, the “activity in MGMT−/MMR− cells, in words” value was “essentially inactive”. In assay [1], the “G2 arrest in MGMT+/MMR+ cells” value was “moderate G2 arrest”. Besides, in assay [1], the “G2 arrest in MGMT−/MMR− cells” value is on record as “absent”.
